Holding throughout (test): NCI tumour cell line growth inhibition, 48 h
Assay [1] relates to 786-0 renal.
Assay [2] concerns HCT-116 colon.
In assay [3] the test system is HOP-92 NSCLC.
For assay [4], the system named is IGROV1 ovarian.
The test system of assay [5] is M14 melanoma.
Assay [6] concerns MCF7 breast.
Assay [7] has as its system NCI-H522 lung.
The test system of assay [8] is SK-OV-3 ovarian.
The test system of assay [9] is SN12C renal.
For assay [10], the system named is EKVX NSCLC.

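How tested: cells in 96-well plates exposed to compound for 48 hours at five concentrations. The concentration for 50% growth inhibition is given as GI50. TGI marks complete inhibition of growth.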 A value given as a limit tells only on which side of the number the result lay.

GI50 and TGI data for seven molecules are collected here from PubChem BioAssay (NCI).

Consider `O=[N+]([O-])c1cccc(C2CC(c3ccccc3)=Nc3ccccc3S2)c1` (stereo not given), for which the GI50 in assay [1] is 17.3 µM; in assay [2], 2.94 µM; in [3] it was 14.3 µM; in assay [4], 16.1 µM; in [5], 19.2 µM; in assay [6], 2.06 µM. Further, the GI50 was 10.8 µM in [7], 34.9 µM in [8] and 13.4 µM in assay [9]. The TGI worked out at 31.6 µM in assay [1]; 9 µM in assay [2]; 45.6 µM in [3]; 35.6 µM in assay [4]; 44.6 µM in assay [5]; 13.3 µM in assay [6]. In addition, the TGI in [7] was 23.5 µM; in [8] it was > 100 µM; in assay [9], 26.8 µM.

Take `O=C(COc1cccc(/C=C2\CSc3ccccc3C2=O)c1)Nc1nccs1`: the GI50 in assay [1] was 3.7 µM; in [10], 7.21 µM; in assay [2], 1.6 µM; in assay [5] it was 1.88 µM; in assay [6] it was 0.779 µM; in assay [7], 1.55 µM. Moreover, the results for the GI50 in [8] and in assay [9] were 14.6 µM and 1.76 µM, respectively. Besides, the TGI stood at 13 µM in [1]; 20.5 µM in assay [10]; 2.96 µM in [2]; 4.06 µM in assay [5]; 3.54 µM in assay [6]; 3.27 µM in assay [7]. In addition, the TGI in [8] is 27.7 µM; in assay [9], 4.46 µM.

For the molecule `COC(=O)[C@H]1CCCN1C(=O)[C@H]1CCCN1C(=O)[C@H](Cc1c[nH]c2ccccc12)NC(=S)Nc1cc(C(F)(F)F)cc(C(F)(F)F)c1`, the GI50 in assay [1] was 13.8 µM; in assay [2] it was 4.27 µM; in assay [3] it was 1.7 µM; in [4] it was 6.97 µM; in assay [5] it was 7.15 µM; in assay [6], 2.99 µM. Besides, the results for the GI50 in assay [7], in assay [8] and in [9] were 4.49 µM, 92.7 µM and 7.32 µM, respectively. Moreover, the TGI in assay [1] was 83 µM; in assay [2], > 100 µM; in assay [3], 6.97 µM; in [4], > 100 µM; in [5], 64.1 µM; in assay [6], > 100 µM. In addition, the TGI in assay [7] was 77.2 µM; in [8], > 100 µM; in assay [9], > 100 µM.

Regarding `Cn1cc(C2=C(c3cn(CCCCCSC(=N)N)c4ccccc34)C(=O)NC2=O)c2ccccc21`, the GI50 is 3.16 µM in [1]; 1.08 µM in assay [2]; 3.27 µM in assay [3]; 3.51 µM in assay [4]; 3.23 µM in assay [5]; 1.22 µM in assay [6]. Also, the figures for the GI50 in [7], in assay [8] and in assay [9] were 1.92 µM, 2.99 µM and 2.67 µM, respectively. In addition, the TGI turned out to be 7 µM in [1]; 4.53 µM in assay [2]; 7.21 µM in assay [3]; 7.93 µM in assay [4]; 6.87 µM in [5]; 4.97 µM in [6]. Also, the TGI in [7] was 5.59 µM; in assay [8], 6.16 µM; in assay [9] it was 6.01 µM.

Take `COc1cc(-c2nn(-c3cccc(NC(=O)c4ccc(Cl)c(C(F)(F)F)c4)c3)cc2-c2ccncc2)ccc1Cl`: the GI50 in assay [1] was 8.2 µM; in [2], 2.04 µM; in assay [3], 0.425 µM; in assay [4], 1.78 µM; in [5], 2.31 µM; in assay [6] it was 1.82 µM. The GI50 was 0.794 µM in [7], 7.53 µM in [8] and 7.15 µM in [9]. The TGI is > 32.5 µM in [1]; > 32.5 µM in assay [2]; 2.5 µM in [3]; > 32.5 µM in [4]; > 32.5 µM in [5]; > 32.5 µM in assay [6]. Also, the figures for the TGI in assay [7], in assay [8] and in [9] were 5.52 µM, > 32.5 µM and > 32.5 µM, respectively.

In the case of `COC(=O)C=Cc1ccc2nncnc2c1` (mixture of isomers), the TGI in assay [1] is > 100 µM; in [10], > 100 µM; in [2] it was > 100 µM; in [4], > 100 µM; in assay [5] it was 42.6 µM; in [6], > 100 µM. The TGI in assay [7], in assay [8] and in [9] was > 100 µM throughout.

Turning to `CN1CSC(=S)N(Cc2ccccc2)C1`, the GI50 in assay [1] is 12 µM; in assay [10], 30.3 µM; in assay [2], 4.49 µM; in assay [4], 10.3 µM; in assay [5], 6.65 µM; in assay [6], 3.18 µM. Moreover, the GI50 in [7] was 1.89 µM; in assay [8], > 100 µM; in assay [9] it was 15.4 µM. Further, the TGI was 44.2 µM in assay [1]; > 100 µM in assay [10]; 15.6 µM in [2]; 27.5 µM in assay [4]; 21.8 µM in [5]; 17.6 µM in assay [6]. Further, the TGI in assay [7] was 5.65 µM; in [8], > 100 µM; in assay [9], 35.7 µM.
